The subject of data set [1] is Aspergillus fumigatus (NCPF2010). In words: Resazurin-microtitre assay of planktonic fungal growth. The format is cell-based. As for the experimental part: This assay was conducted using a modified, published method (Monteiro et al., 2012). Spores of Aspergillus fumigatus (NCPF2010, Public Health England, Wiltshire) were cultured in Sabouraud dextrose agar for 3 days. A stock spore suspension was prepared from a Sabouraud dextrose agar culture by washing with PBS-tween (10 mL; PBS containing 0.05% Tween-20, 100 U/mL Penicillin and 100 U/mL Streptomycin). The spore count was assessed using a Neubauer haemocytometer and, using PBS, adjusted to 10^6 spores/mL. A working suspension of spores (10^4 spores/mL) was prepared in filter sterilised MOPS RPMI-1640 (50 mL; RPMI-1640 containing 2 mM L-glutamine, 2% glucose and 0.165 M MOPS, buffered to pH 7 with NaOH). Resazurin sodium salt (100 μL of 1% solution; Sigma-Aldrich, Dorset, UK) was added to the spore suspension and mixed well. The spore suspension-resazurin mixture (100 μL/well) was added to 384-well plates (Catalogue number 353962, BD Falcon, Oxford, UK). Simultaneously, test compounds (0.5 μL DMSO solution) were added to 100 μL of the spore-resazurin mixture in quadruplicate to provide a final DMSO solution of 0.5% using an Integra VIAFLO 96 (Intergra, Zizers, Switzerland). For non-spore control wells, MOPS-RPMI-resazurin solution (100 μL) was added instead of the spore-resazurin mixture. The plate was covered with a Breathe Easier membrane (Catalogue No Z763624, Sigma-Aldrich, Dorset, UK), and incubated (35° C., 5% CO2) until fluorescence in the inoculated wells was double that of the control wells (around 24 hr). The fluorescence of each well (545 nm (excitation)/590 nm (emission), gain 800, focal height 5.5 mm) was determined using a multi-scanner (Clariostar: BMG, Buckinghamshire, UK). The percentage inhibition for each well was calculated and the MIC50, MIC75 and MIC90 values were calculated from the concentration-response curve generated for each test compound.
For orientation: Alamar Blue is a resazurin reagent that responds to reducing activity.

The next data set has as its system BEAS2B cells. In words: Cell viability: resazurin assay. The note with it: n = 1-5. The class given is cell-based, human. As for the experimental part: (§1) BEAS2B cells were seeded in 384-well plates (100 μL; 3000/well/; BD Falcon, Catalogue No 353962) in RPMI-LHC8 (RPMI-1640 and LHC8 media combined in equal proportions) one day before experimentation. For cell-free control wells, RPMI-LHC8 (100 μL) was added. Test compounds (0.5 μL of a DMSO solution) were added to give a final DMSO concentration of 0.5% using an Integra VIAFLO 96 (Integra, Zizers, Switzerland). BEAS2B cells were incubated with each test compound for 1 day (37° C./5% CO2 in RPMI-LHC8). After addition of resazurin stock solution (5 μL, 0.04%) the plates were incubated for a further 4 hr (37° C./5% CO2). The fluorescence of each well at 545 nm (excitation) and 590 nm (emission) was determined using a multi-scanner (Clariostar: BMG Labtech). The percentage loss of cell viability was calculated for each well relative to vehicle (0.5% DMSO) treatment. Where appropriate, a CC50 value was calculated from the concentration-response curve generated from the concentration-response curve for each test compound.

Data set [2] relates to Aspergillus fumigatus isolates. The data set is described as follows: Broth microdilution assay of planktonic fungal growth (modified EUCAST). The class given is cell-based. The note with it: read-out: MIC75. As for the experimental part: This assay was conducted using a modified method published by EUCAST (Rodriguez-Tudela et al., 2008). Spores of Aspergillus fumigatus (NCPF2010, NCPF7010 (Methionine 220 mutation), NCPF7099 (Glycine G54 mutation) from Public Health England, Wiltshire; TR34/L98H mutants from St Louis Hospital, Paris, France) were cultured in Sabouraud dextrose agar for 3 days. A stock spore suspension was prepared from a Sabouraud dextrose agar culture by washing with PBS-tween (10 mL; PBS containing 0.05% Tween-20, 100 U/mL Penicillin and 100 U/mL Streptomycin). The spore count was assessed using a Neubauer haemocytometer and then adjusted to 10^6 spores/mL with PBS. A working suspension of spores (2×10^5 spores/mL) was prepared in filter sterilised, BSA MOPS RPMI-1640 (50 mL; RPMI-1640 containing 2 mM L-glutamine, 0.5% BSA, 2% glucose, 0.165 M MOPS, buffered to pH 7 with NaOH). For the assay, BSA MOPS RPMI-1640 (50 μL/well) was added throughout the 384-well plate (Catalogue number 353962, BD Falcon, Oxford, UK) first. Test compounds (0.5 μL DMSO solution) were then added in quadruplicate using an Integra VIAFLO 96 (Integra, Zizers, Switzerland), and mixed well using a plate mixer. Subsequently 50 μL of the working spore suspension prepared above was added to all wells except non-spore control wells. For non-spore control wells, BSA MOPS-RPMI solution (50 μL/well) was added instead. The plate was covered with a plastic lid, and incubated (35° C. with ambient air) for 48 hr. The OD of each well at 530 nm was determined using a multi-scanner (Clariostar: BMG, Buckinghamshire, UK). The percentage inhibition for each well was calculated and the MIC50, MIC75 and MIC90 values were calculated from the concentration-response curve generated for each test compound.
A general note: In broth dilution the organism is exposed to a series of concentrations in liquid medium.

For data set [3], the system named is Aspergillus fumigatus isolates. Described as above. The class given is cell-based. As to conditions: isolate NCPF7100, broth microdilution, read-out: MIC75.
For a further data set, the system named is Aspergillus fumigatus. The data set is described as follows: Aspergillus fumigatus infection of BEAS2B bronchial epithelial cells (GM in supernatant). The class given is cell-based. On the procedure: BEAS2B cells were seeded in 96-well plates (100 μL; 30,000 cells/well; Catalogue No 3596, Sigma Aldrich, Dorset, UK) in 10% FBS RPMI-1640 and were then incubated (37° C., 5% CO2) for one day before experimentation. Test compounds (0.5 μL DMSO solution) or vehicle (DMSO) were added to each well to give a final DMSO concentration of 0.5%. BEAS2B cells were incubated with test compounds for 1 hr (35° C., 5% CO2) before infection with Aspergillus fumigatus (20 μL; Public Health England) conidia suspension (0.5×10^5/ml in 10% FBS RPMI-1640). The plate was incubated for 24 hr (35° C., 5% CO2). Supernatant (50 μL) was collected and transferred to a PCR plate (Catalogue No L1402-9700, Starlab, Milton Keynes, UK), which was frozen (−20° C.) until use. After thawing, supernatant (5 μL) was diluted 1:20 by adding R7-PBS solution (95 μL; 1:4 R7 to PBS; Bio-Rad Laboratories, Redmond, Wash., USA). GM levels in these samples (50 μL) were measured using Platelia GM-EIA kits (Bio-Rad Laboratories, Redmond, Wash., USA). The percentage inhibition for each well was calculated and the IC50 value was calculated from the concentration-response curve generated for each test compound.

A short description of data set [4]: Cell viability: resazurin assay. As to conditions: human, BEAS2B cells; n = 1-5. The format is cell-based, human. As for the experimental part:
as §1

Each structure is given as a SMILES string. In brackets after ≈: the same amount, converted by molar mass. Where two headings read alike, the source gives them in different places.

Take `C[C@@H]1[C@H](O)[C@@H](C)/C=C/C=C/C=C/C=C/C=C/C=C/C=C/[C@H](O[C@@H]2O[C@H](C)[C@@H](O)[C@H](N)[C@@H]2O)C[C@@H]2O[C@](O)(C[C@@H](O)C[C@@H](O)[C@H](O)CC[C@@H](O)C[C@@H](O)CC(=O)O[C@H]1C)C[C@H](O)[C@H]2C(=O)O` [Amphotericin B]: in data set [1], the “Planktonic fungal growth MIC50” value is 0.0285 µM. In addition, in data set [1], the “Planktonic fungal growth MIC75” value came to 0.0644 µM. Besides, half-maximal cytotoxicity with BEAS2B cells (CC50) was put at 977 nM. Moreover, the MIC was 0.209 µM (≈ 0.193 µg/mL) in data set [2] (isolate L98H, broth microdilution); 0.382 µM (≈ 0.353 µg/mL) in data set [2] (isolate NCPF2010, broth microdilution); 0.365 µM (≈ 0.337 µg/mL) in data set [2] (isolate NCPF7099, broth microdilution); more than 1.08 µM in data set [3].

For `[2H]c1c([2H])c(NC(=O)c2ccc(N3CCN(c4ccc(OC[C@@H]5CO[C@@](Cn6cncn6)(c6ccc(F)cc6F)C5)c(C)c4)CC3)cc2)c([2H])c([2H])c1F` [Compound (I)•4[^2H], 4-(4-(4-(((3R,5R)-5-((1H-1,2,4-triazol-1-yl)methyl)-5-(2,4-difluorophenyl)tetrahydrofuran-3-yl)methoxy)-3-methylphenyl)piperazin-1-yl)-N-(4-fluorophenyl-2,3,5,6-d4)benzamide], the MIC50 (usually the lowest concentration that inhibits either 50% of growth or 50% of the strains tested, depending on the study) with Aspergillus fumigatus came to 0.00315 µM (≈ 0.00216 µg/mL). In data set [4], the CC50 – broadly, the concentration that lowers cell viability or growth by half – at 1 day is more than 14600 nM. The MIC in data set [2] (Aspergillus fumigatus) worked out at 0.07 µM (≈ 0.0481 µg/mL); in data set [2] (Aspergillus fumigatus, isolate NCPF2010, broth microdilution), 0.0147 µM (≈ 0.0101 µg/mL); in data set [2] (Aspergillus fumigatus, isolate NCPF7099, broth microdilution) it was 0.0137 µM (≈ 0.00941 µg/mL); in data set [3] (Aspergillus fumigatus) it was 0.0286 µM (≈ 0.0196 µg/mL).

(Values after US20210238169A1, “PROCESS FOR PREPARING A COMPOUND OF FORMULA (XIII)” (PULMOCIDE LIMITED, priority 2014, published 2021).)
